Measured values from patent US10813981B2, “Saposin B binds the lipofuscin bisretinoid A2E and prevents its enzymatic and photo degradation” (Syracuse University, priority 2017, dated 2020).
pKd: −log10 of the molar value.

Key:
SapB = biological target: T1, SapB (Homo sapiens, UniProt P07602); experiment: Fluorescence quenching titration of SapB with ligand (double logarithmic Stern-Volmer analysis); assay type: binding
T1 construct: made in house; host or cells: E. coli
T1 sequence (P07602 195-273 limits assumed): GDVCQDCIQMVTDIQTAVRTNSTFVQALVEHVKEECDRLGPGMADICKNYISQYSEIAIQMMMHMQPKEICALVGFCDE
Description: A2E and SapB were prepared and purified according to literature reports. To determine the A2E/protein binding stoichiometry, a fluorescence titration was carried out by incrementally adding small amounts of A2E to a solution of SapB (FIG. 2). […] A double logarithmic plot of
Fluorescence quenching measurements were performed on a Varian Cary Eclipse fluorimeter equipped with a QNW Peltier temperature controller. The experiments were conducted at 25.00±0.01° C. in 50 mM phosphate buffer, pH 5.50 or 7.40 using 278 nm excitation wavelength for sapB emission spectra at 325 nm (FIG. 2) or 444 nm excitation for A2E emission at 602 nm (FIG. 3) with excitation and emission monochromators bandwidth of 5 nm each. The fluorescence quenching data were analyzed using OriginLab software version 8.
The interaction of SapB (prepared as described above) with a variety of ligands was followed by monitoring the quenching of the fluorescence intensities of the protein's tyrosine residues upon binding (FIG. 12 Panels a-f).
For each ligand tested 40 μM SapB in 50 mM phosphate buffer at pH 5.5 was titrated with ligand and quenching was monitored at the fluorescence maxima at 330 nm. […] All of the fluorescence data were analyzed by a double logarithmic Stern-Volmer plot, shown for all ligands, using the emission maxima to determine binding affinity, presented in Table 3, and using the following equation
Materials and Methods—Saposin B (SapB) was prepared and purified as described above. Briefly, SapB solutions in this study were prepared in 50 mM phosphate buffer, pH 5.5. […] Ligand solutions were prepared in 100% dimethylformamide (DMF) to a concentration of 2 mM, with the exception of hydoxychloroquine (HCQ), which was prepared in 50 mM phosphate buffer, pH 5.5. […] 4.2. Fluorescence Spectroscopy. Fluorescence quenching measurements were performed on a Varian Cary Eclipse fluorimeter equipped with a QNW Peltier temperature controller. The binding experiments were conducted at 25.00±0.01° C. in 50 mM phosphate buffer, pH 5.5, using 278 nm excitation wavelength for SapB emission spectra at 330 nm (FIG. 1a-f) with excitation and emission monochromators bandwidth of 5 nm each. Temperature sensitive binding experiments were performed between 20.00±0.01 and 40.00±0.01° C. using 278 nm excitation wavelength for SapB emission spectra at 331 nm, with excitation and emission monochromators bandwidth of 5 nm each. The fluorescence quenching data were analyzed using OriginLab software version 8.

HRP = biological target: T2, HRP (Armoracia rusticana, UniProt P00433); experiment: A2E degradation by HRP/H2O2, absorbance kinetics at 340 nm; assay type: biochemical
T2 sequence (P00433 31-338): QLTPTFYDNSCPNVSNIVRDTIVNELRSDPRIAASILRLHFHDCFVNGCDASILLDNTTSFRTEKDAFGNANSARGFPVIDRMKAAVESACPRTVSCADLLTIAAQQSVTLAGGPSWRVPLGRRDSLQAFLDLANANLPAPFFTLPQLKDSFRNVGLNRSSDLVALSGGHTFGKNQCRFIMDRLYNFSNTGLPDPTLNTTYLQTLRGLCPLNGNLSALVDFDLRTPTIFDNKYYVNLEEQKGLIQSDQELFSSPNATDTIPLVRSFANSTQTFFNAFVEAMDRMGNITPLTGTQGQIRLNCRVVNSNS
Source text: Horseradish peroxidase (HRP) is reported to cleave the bis-retinoid A2E. Thus, the ability of SapB to protect A2E from oxidative transformations by HRP was investigated.
In classic peroxidases, it is believed that reaction with hydrogen peroxide gives rise to two oxidizing equivalents (i.e. a porphyrin radical-cation and an Fe(IV)-oxo (ferryl) species) due to exposure of the prosthetic heme group to the bulk solution. […] Having established the presence of two different binding sites on SapB (one for A2E and one for CoQ10), the ability of SapB to protect A2E in the presence of CoQ10 was tested.
Conventional ultraviolet visible spectroscopy was performed on a Varian Cary 50 Bio spectrophotometer from Agilent Technologies. The stock solutions of various reagents were prepared as follow: HRP in DI water, A2E in DMSO, SapB in 50 mM phosphate buffer, pH 5.5, CoQ10 in THF (tetrahydrofurane) and 3% H2O2 solution diluted in DI water from an initial stock at 30%. The 340 nm kinetic experiments were monitored every 5 minutes for a total of 400 min following the sequential addition of all reagents as indicated in FIG. 4. The HRP solution of FIG. 5 was prepared in 20 mM phosphate buffer, 1% tween, pH 5.5, 25° C. All concentrations given in the figure caption are final concentrations following mixing of the reagents. The spectrophotometric data were further analyzed with OriginLab software version 8.

[1] = biological target: T3, retinoid isomerohydrolase (RPE65 isomerohydrolase) (Homo sapiens, UniProt Q16518); conditions: non-palmitoylated, soluble, cytoplasmic RPE65; read-out: KD, direct binding to RPE65; cited from earlier work
T3 sequence (Q16518 1-533): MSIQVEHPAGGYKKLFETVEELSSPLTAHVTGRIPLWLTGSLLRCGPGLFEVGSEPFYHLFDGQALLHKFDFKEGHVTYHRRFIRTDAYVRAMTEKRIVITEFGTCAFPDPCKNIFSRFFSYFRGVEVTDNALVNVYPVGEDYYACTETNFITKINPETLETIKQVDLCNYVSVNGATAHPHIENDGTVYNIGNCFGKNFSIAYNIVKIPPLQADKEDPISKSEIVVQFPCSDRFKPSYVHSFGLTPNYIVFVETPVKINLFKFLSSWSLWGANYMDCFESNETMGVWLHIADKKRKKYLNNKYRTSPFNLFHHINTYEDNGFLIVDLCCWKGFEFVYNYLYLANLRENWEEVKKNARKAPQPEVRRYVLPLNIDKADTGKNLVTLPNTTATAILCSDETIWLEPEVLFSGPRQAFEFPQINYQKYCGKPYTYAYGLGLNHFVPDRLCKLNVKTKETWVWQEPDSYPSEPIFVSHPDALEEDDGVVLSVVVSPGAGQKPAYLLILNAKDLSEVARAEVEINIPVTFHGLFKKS

[2] = test system: retinoic acid receptor (RAR); conditions: cited from earlier work

For CC(C=CC1=C(C)CCCC1(C)C)=CC=CC(C)=Cc1cc(C=CC=C(C)C=CC2=C(C)CCCC2(C)C)cc[n+]1CCO [A2E, N-retinylidene-N-retinylethanolamine], the “binding stoichiometry from double logarithmic plot” value (SapB) was about 1 A2E per SapB dimer, the “LogKA of binding by SapB” value (SapB; 40 μM SapB, 50 mM phosphate buffer pH 5.5, average of three runs) was 4.680 and the “binding affinity (KA), A2E to SapB” value (SapB; double logarithmic plot, 50 mM phosphate buffer pH 5.5, 25° C.) was about 4e+06 M⁻¹. The pKd (SapB; read-out: KD, SapB binds A2E) was 4.60, the “binding stoichiometry, discontinuity of fluorescence quenching at 308 nm” value (SapB; titration of SapB with A2E) was about 0.5 A2E/protein and the “absorbance change at 340 nm, A2E pre-complexed with SapB” value (HRP; 2:1 SapB:A2E ratio, + HRP + H2O2) was “very similar to that of a control mixture of HRP and H2O2”. The “absorbance, sequences (SapB+A2E)complex+CoQ10+HRP+H2O2 or (SapB+CoQ10)complex+A2E+HRP+H2O2” value (HRP; SapB and CoQ10 present) was “absorbance values similar to the sequence (SapB+A2E)complex+HRP+H2O2”, the “damage to A2E, sequence (SapB+HRP)complex+A2E+H2O2” value (HRP; SapB pre-complexed with HRP) was “partial damage” and the “absorbance of A2E at 340 nm after H2O2 added to A2E containing HRP” value (HRP; free A2E) was “decrease in the absorbance value”. For the same molecule, the pKd [1] was 6.60 and the “ligand activity at RAR” value [2] was “endogenous ligand”.
